Measured values: PubChem BioAssay AID1996
Converted amounts (≈) assume the structure as drawn.

Conditions: buffer; pH 7.4; 200.0 µM
In the case of CCOC(=O)CN(C#N)c1nc(N(C)C)nc(N(C)C)n1, the solubility kinetic is reported as 17.8 µg/mL (≈ 60.7 µM).
COc1cc2c(cc1OC)CN(c1ccc(C(F)(F)F)cn1)CC2 gave a solubility kinetic of 34.9 µg/mL (≈ 103 µM).
In the case of CC1(C2CC(C(F)(F)F)n3nc(C(=O)O)cc3N2)CC1 (centres undefined), the solubility kinetic is reported as greater than 43.4 µg/mL.
Compound C#CCn1c(C)cc(C)c(S(=O)(=O)c2ccccc2)c1=O has a solubility kinetic greater than 45.2 µg/mL.
Work on Cc1oc(S(=O)(=O)N2CCOCC2)cc1C(=O)Nc1ccc(F)cc1 yielded a solubility kinetic of 5.4 µg/mL (≈ 14.7 µM).
CCOC(=O)C1CCN(C(=O)COC(=O)/C=C/c2cccc(OC)c2OC)CC1 showed a solubility kinetic of 60.5 µg/mL (≈ 149 µM).
Compound COc1ccc(S(=O)(=O)N2CC(=O)Nc3ccccc32)cc1Cl has a solubility kinetic greater than 52.9 µg/mL.
Work on N#Cc1cc([N+](=O)[O-])ccc1NC(=O)COC(=O)C1CCC(=O)N1 (centres undefined) yielded a solubility kinetic greater than 49.8 µg/mL.
CC(C)(C)n1cnnc1Sc1ncccc1[N+](=O)[O-] showed a solubility kinetic greater than 41.9 µg/mL.
Cc1ccccc1/C=C\c1nc(O)c([N+](=O)[O-])c(=O)[nH]1 showed a solubility kinetic greater than 41 µg/mL.
With CC(=O)Nc1cccc(-c2csc(Nc3ccc(Cl)cn3)n2)c1 the solubility kinetic was 0.5 µg/mL (≈ 1.45 µM).
Compound CN(C)C(=S)SCC(=O)NC(=O)NC(C)(C)C has a solubility kinetic of 39.4 µg/mL (≈ 142 µM).
For CC(Oc1ccccc1)C(=O)NC1CCCCCCC1 (centres undefined), the solubility kinetic was greater than 41.3 µg/mL.
Cc1cccc(Nc2cc(C)nc3ccccc23)c1.Cl gave a solubility kinetic greater than 42.7 µg/mL.
Compound C/C(=N\NC(N)=O)c1c(O)n(C)c(=O)n(C)c1=O has a solubility kinetic greater than 38.3 µg/mL.
Work on O=C(/C=C/Sc1ccc(C(F)(F)F)cn1)c1ccccc1 yielded a solubility kinetic of less than 0.7 µg/mL.
With NC(=O)c1ccc(SCC(=O)NC2CCCCC2)c([N+](=O)[O-])c1 the solubility kinetic was 14.7 µg/mL (≈ 43.6 µM).
Work on O=S(=O)(Nc1cccnc1)c1ccc(F)cc1 yielded a solubility kinetic greater than 37.8 µg/mL.
COc1cc2c(C#N)c(N3CCc4ccccc4C3)nc(N)c2c(N)n1 gave a solubility kinetic of 1.6 µg/mL (≈ 4.62 µM).
O=C(O)CCN=Cc1c(O)c2ccccc2oc1=O showed a solubility kinetic greater than 39.2 µg/mL.
CSc1ncccc1C(=O)Nc1cc(C)ccn1 showed a solubility kinetic greater than 38.9 µg/mL.
Compound COC(=O)C1CCN(C(=O)/C(C)=C\c2ccccc2)CC1 has a solubility kinetic of 41 µg/mL (≈ 143 µM).
In the case of O=[N+]([O-])c1cc([N+](=O)[O-])c2cc3ccccc3nc2c1, the solubility kinetic is reported as 0.2 µg/mL (≈ 0.743 µM).
Cc1c(C(=O)n2cnc3ccccc32)cccc1[N+](=O)[O-] gave a solubility kinetic of 39.8 µg/mL (≈ 142 µM).
For Cc1ccc(OCC(O)CNC2CCCC2)c(C)c1.Cl (centres undefined), the solubility kinetic was 41.3 µg/mL.
Work on Cc1ccc(-c2csc(NC(=O)c3cnccn3)n2)cc1C yielded a solubility kinetic of less than 0.2 µg/mL.
For O=[N+]([O-])c1ccc(Cl)cc1N1CCCC1, the solubility kinetic was 2.5 µg/mL (≈ 11 µM).
CN(C)c1ccc(-c2nc3ccccc3c(=O)[nH]2)cc1 gave a solubility kinetic of 1.9 µg/mL (≈ 7.16 µM).
Cc1ccc2c(CN(C)Cc3cccc(F)c3)cc(=O)oc2c1C showed a solubility kinetic of 2.9 µg/mL (≈ 8.91 µM).
Work on Cc1cccc(NC(=O)Nc2ccccn2)c1C yielded a solubility kinetic of 1.2 µg/mL (≈ 4.97 µM).
Compound COc1ccc(NC(=O)CC(C(=O)O)C(C)c2ccccc2)cc1 (centres undefined) has a solubility kinetic greater than 49.1 µg/mL.
For Cc1ccc(C2=NC3(CCCC3)NC2=S)cc1, the solubility kinetic was 2.2 µg/mL (≈ 9 µM).
Work on O=C(Cn1cnc2ccccc21)Nc1cccc([N+](=O)[O-])c1 yielded a solubility kinetic of 42.8 µg/mL (≈ 144 µM).
In the case of CC(C)(CNC(=O)c1cccc(F)c1)CNC(=O)c1cccc(F)c1, the solubility kinetic is reported as 13.2 µg/mL (≈ 38.1 µM).
Work on Cc1ccc(C(=O)NCC(c2ccc(F)cc2)N2CCOCC2)cc1 (centres undefined) yielded a solubility kinetic of 44.4 µg/mL (≈ 130 µM).
Work on O=C(Nc1ccsc1C(=O)O)c1ccccc1 yielded a solubility kinetic greater than 37.1 µg/mL.
Work on CCS(=O)(=O)N1CCC(C(=O)Nc2cc([N+](=O)[O-])ccc2C)CC1 yielded a solubility kinetic greater than 53.3 µg/mL.
In the case of COc1ccc(N=CC=C2OC(C)(C)C(C)(C)O2)cc1OC.Cl, the solubility kinetic is reported as 47.1 µg/mL.
Work on Cc1cc(C(C)(C)C)cc(C)c1COC(=O)c1cccnc1 yielded a solubility kinetic of 1.7 µg/mL (≈ 5.72 µM).
Work on CCOc1cc(C(=O)Nc2cccnc2)cc(OCC)c1OCC yielded a solubility kinetic of 47.3 µg/mL (≈ 143 µM).
Compound CC(C1CCN(Cc2nc(C3CC3)no2)CC1)N1CCOCC1 (centres undefined) has a solubility kinetic of 47.9 µg/mL (≈ 149 µM).
In the case of COc1cccc(C(C)NC(=O)Nc2cc(Cl)ccc2OC)c1 (centres undefined), the solubility kinetic is reported as less than 0.4 µg/mL.
In the case of CC1CCCN(C(=O)c2ccc([N+](=O)[O-])o2)C1 (centres undefined), the solubility kinetic is reported as greater than 35.7 µg/mL.
In the case of CC1=C(C)CC(C(=O)NCCc2ccc(F)cc2)C(C(=O)O)C1 (centres undefined), the solubility kinetic is reported as greater than 47.9 µg/mL.
Compound CCC(OC(=O)c1nsc(Cl)c1Cl)C(=O)NCCOC (centres undefined) has a solubility kinetic greater than 51.2 µg/mL.
Work on Cc1cc(=O)oc2c(C)c(OCC(=O)NCC3CCC(C(=O)O)CC3)ccc12 (centres undefined) yielded a solubility kinetic greater than 58.1 µg/mL.
Work on CN(CC(=O)Nc1c(Cl)cccc1Cl)CC(=O)N(C)C1(C#N)CCCCC1 yielded a solubility kinetic greater than 61.7 µg/mL.
Compound COc1ccc(C(=O)CCN2CCCC(C)C2)cc1.Cl (centres undefined) has a solubility kinetic greater than 44.7 µg/mL.
For Cc1ccc(OC(C)C(=O)Nc2ccc(F)cc2)c([N+](=O)[O-])n1 (centres undefined), the solubility kinetic was 39.7 µg/mL (≈ 124 µM).
With Cc1ccc(CNC(=O)C2CCCC2)cc1 the solubility kinetic was 27.5 µg/mL (≈ 127 µM).
In the case of Br.CCCN(CCC)C1CCc2cccc(O)c2C1 (centres undefined), the solubility kinetic is reported as greater than 49.2 µg/mL.
For Cc1ccc(C(=O)N2CCN(C)CC2)cc1[N+](=O)[O-], the solubility kinetic was greater than 39.5 µg/mL.
CC(C)(C)C(=O)N1c2ccccc2CCc2ccccc21 showed a solubility kinetic of 28.7 µg/mL (≈ 103 µM).
In the case of CCOC(=O)c1c(CCl)nc2ccccc2c1C.Cl, the solubility kinetic is reported as 30.4 µg/mL.
CCCC(=O)Nc1ccc(C=C(C(C)=O)C(C)=O)cc1 gave a solubility kinetic greater than 41 µg/mL.
For COC(=O)C1=C(C)N(Cc2ccc(OC)cc2)C(=O)/C1=C\c1ccco1, the solubility kinetic was 7.7 µg/mL (≈ 21.8 µM).
In the case of COc1ccccc1NC(=O)C1CCCN(C(=O)NCc2ccccc2)C1 (centres undefined), the solubility kinetic is reported as greater than 55.1 µg/mL.
O=C1NC2(CCCCCC2)C(=O)N1Cc1ccc(Br)cc1 gave a solubility kinetic of 5.2 µg/mL (≈ 14.8 µM).
O=C(COC(=O)CCSc1ccccc1)Nc1ccccc1Br gave a solubility kinetic of 18.2 µg/mL (≈ 46.2 µM).
In the case of CCC(=NCc1cc(OC)cc(OC)c1)c1c(O)[nH]c(=O)[nH]c1=O, the solubility kinetic is reported as 12.5 µg/mL (≈ 37.5 µM).
With CN(C)c1nc(-c2cccs2)cc(C(F)(F)F)c1C#N the solubility kinetic was 0.3 µg/mL (≈ 1.01 µM).
With COc1ccc(NC(=O)NC2(C(=O)N3CCCC3)CCCCC2)cc1 the solubility kinetic was 24 µg/mL (≈ 69.5 µM).
Work on O=C(NC(=S)Nc1ccc(Cl)cc1Cl)C1CC1 yielded a solubility kinetic of 0.8 µg/mL (≈ 2.77 µM).
With CCN(CC)C(=O)c1c(-c2ccccc2)oc2ccc(O)cc12 the solubility kinetic was 31.8 µg/mL (≈ 103 µM).
Work on CCOC(=O)C1CCN(C(=O)COc2ccc3c(c2)OCO3)CC1 yielded a solubility kinetic greater than 50.3 µg/mL.
Work on CCOc1ccccc1N1CCN(Cc2cnc(-c3ccccc3)[nH]2)CC1 yielded a solubility kinetic greater than 54.4 µg/mL.
With O=C(COc1ccccc1)Nc1ccncc1 the solubility kinetic was greater than 34.2 µg/mL.
COc1ccc(/C=C/C(=O)O)cc1S(=O)(=O)N1CCCC1 gave a solubility kinetic greater than 46.7 µg/mL.
Work on Cc1ccc(S(=O)(=O)NC(=O)C2CCCCC2)cc1 yielded a solubility kinetic greater than 42.2 µg/mL.
O=C(NC1CCN(C(=O)Nc2cccc(F)c2)CC1)c1ccco1 showed a solubility kinetic greater than 49.7 µg/mL.
Compound COc1ccc(CNC(=O)CN(c2ccccc2OC)S(=O)(=O)c2cccs2)cc1 has a solubility kinetic of 10.7 µg/mL (≈ 24 µM).
In the case of CC1CN(c2ccccc2)c2nc3c(c(=O)[nH]c(=O)n3C)n2C1 (centres undefined), the solubility kinetic is reported as greater than 46.7 µg/mL.
In the case of COc1ccccc1-c1c(C)nn2c(N3CCOCC3)cc(C)nc12, the solubility kinetic is reported as greater than 50.8 µg/mL.
In the case of Cc1cc(Oc2ccc(OCC(N)=O)nn2)nc(Cl)n1, the solubility kinetic is reported as greater than 44.4 µg/mL.
Cc1ccc(C(=O)COC(=O)c2cccc([N+](=O)[O-])c2)s1 gave a solubility kinetic of 7.1 µg/mL (≈ 23.3 µM).
With Cc1ccc(N(CC(=O)Nc2cc(C)ccc2C)S(C)(=O)=O)cc1 the solubility kinetic was 33.7 µg/mL (≈ 97.3 µM).
Work on Cl.OC(CNCc1cccnc1)COc1ccc2ccccc2c1 (centres undefined) yielded a solubility kinetic of 43.5 µg/mL.
Compound CC1CCCCN1C(=O)COC(=O)/C=C/c1ccc2ccccc2n1 (centres undefined) has a solubility kinetic of 25.1 µg/mL (≈ 74.2 µM).
For O=C(/C=C/c1cccnc1)c1cccc(O)c1, the solubility kinetic was 29.9 µg/mL (≈ 133 µM).
CC(=O)Nc1ccc(NC(=O)CCCn2cnc3ccccc3c2=O)cc1 gave a solubility kinetic of 49.1 µg/mL (≈ 135 µM).
In the case of O=C(COC(=O)c1ccc2ccccc2c1O)NCc1ccccc1, the solubility kinetic is reported as 3 µg/mL (≈ 8.95 µM).
For O=C(CSc1ccccc1)Nc1ccc(Cl)c(S(=O)(=O)N2CCOCC2)c1, the solubility kinetic was 14.6 µg/mL (≈ 34.2 µM).
CCCCN(C)S(=O)(=O)c1cc2c3c(c1)CCC(=O)N3CCC2 showed a solubility kinetic of 48.6 µg/mL (≈ 144 µM).
Compound O=C(NCCNC(=O)c1ccccn1)c1ccc(-c2ccccc2)cc1 has a solubility kinetic of 3.3 µg/mL (≈ 9.55 µM).
